Data set [1] in a line: Self-reported skin irritation after taking methadone in MMT patients. The following applies: 15 of 344 MMT patients.
Method: The inclusion criteria included subjects aged 18 or above, having undergone MMT for at least three months with regular attendance for the past seven days, and a methadone dosage adjustment of not more than 10 mg in the past seven days. Exclusion criteria included co-morbidity with physical and mental disorders requiring immediate treatment and pregnancy.
Data set [2] can be described thus: Plasma nicotine metabolite cotinine concentration in MMT patients subgrouped by age. The format is in vivo, human.

With `CCC(=O)C(CC(C)N(C)C)(c1ccccc1)c1ccccc1` (stereo not drawn) [R,S-methadone], the “Patients self-reporting skin irritation after taking methadone” value in data set [1] is “around 4.4%”.
In the case of `CN1C(=O)CC[C@H]1c1cccnc1` [Cotinine], the Plasma cotinine concentration is 384.20 ± 184.90 ng/mL in data set [2] (MMT subjects age <45, n=275, mean ± SD) and 439.65 ± 203.44 ng/mL in data set [2] (MMT subjects age ≥45, n=69, mean ± SD).

(Values after patent US20230273220A1, “METHODS FOR PREDICTION, DETECTION AND MONITORING OF SUBSTANCEUSE DISORDERS AND/OR AN INFECTION” (NATIONAL HEALTH RESEARCH INSTITUTES, priority 2020, published 2023).)
